Data set [1] has as its system RAW264.7. The data set can be described thus: Inhibition of LPS-induced nitric oxide production in mouse RAW264.7 cells preincubated for 1 hr followed by LPS stimulation by Greiss assay. The class given is functional, cell-based.
Data set [2] deals with RAW264.7. The data set can be described thus: Cytotoxicity against mouse RAW264.7 cells assessed as cell viability at 100 ug/ml after 24 hrs by MTT assay. The class given is cell-based. As to conditions: raw264.7, 24 h. (Tetrazolium dyes change colour on reduction, which living cells bring about.)
The subject of data set [3] is A-375. The data set can be described thus: Induction of autophagy in human A375 cells assessed as increase in LC3-2 complex concentration at 65 uM after 6 hrs by Western blot analysis. The class given is functional, cell-based. (Immunoblotting shows a protein as a band on a membrane.)
Data set [4] deals with Mus musculus. Description: Antiinflammatory activity against substance-P-induced paw edema in Swiss mouse at 10 mg/kg, ip measured at 15 to 90 mins administered 30 mins prior to substance p-challenge by plethysmometric analysis. The class given is functional.
The subject of data set [5] is RAW264.7. The data set can be described thus: Inhibition of iNOS expression in LPS-stimulated mouse RAW264.7 cells at 12.5 to 50 ug/ml preincubated with the compound followed by LPS stimulation for 24 hrs by Real-Time PCR. It counts as functional, cell-based.
Data set [6] deals with Mus musculus. The data set can be described thus: Antiinflammatory activity against carrageenan-induced paw edema in Swiss mouse at 10 mg/kg, ip measured at 15 to 90 mins administered 30 mins prior to carrageenan-challenge by plethysmometric analysis. The class given is functional. (Carrageenan injected into the paw causes an acute inflammation.)
For data set [7], the system named is Mus musculus. Description: Antiinflammatory activity against bradykinin-induced paw edema in Swiss mouse at 10 mg/kg, ip measured at 15 to 90 mins administered 30 mins prior to bradikynin-challenge by plethysmometric analysis. The class given is functional.
Data set [8] relates to Mus musculus. Description: Antiinflammatory activity in carrageenan-induced Swiss mouse peritonitis model assessed as effect on total number of cells in peritonial cavity at 1 to 10 mg/kg, ip administered 30 mins prior to carrageenan challenge. The class given is functional, organism-based.
Data set [9] relates to RAW264.7. The data set can be described thus: Inhibition of COX2 expression in LPS-stimulated mouse RAW264.7 cells at 12.5 to 50 ug/ml preincubated with the compound followed by LPS stimulation for 24 hrs by Real-Time PCR. The class given is functional, cell-based.
The test system of data set [10] is A-375. Description: Induction of autophagy in human A375 cells assessed as increase in LC3-2 complex concentration at 65 uM after 1 hr by Western blot analysis. The class given is functional, cell-based.
The test system of data set [11] is Mus musculus. Description: Antiinflammatory activity in bradykinin-induced peritonitis Swiss mouse model assessed as decrease in total number of cells in pertonial cavity at 100 mg/kg, ip administered for 30 mins prior to bradykinin challenge. It counts as functional.
Data set [12] concerns Mus musculus. Description: Antiinflammatory activity against substance-P-induced paw edema in Swiss mouse at 100 mg/kg, ip measured at 15 to 90 mins administered 30 mins prior to substance p-challenge by plethysmometric analysis. It counts as functional.
The subject of data set [13] is Mus musculus. Description: Antiinflammatory activity in substance p-induced Swiss mouse peritonitis model assessed as decrease in total number of cells in pertonial cavity at 100 mg/kg, ip administered for 30 mins prior to substance-P challenge. The class given is functional.
The subject of data set [14] is Mus musculus. Description: Antiinflammatory activity in carrageenan-induced Swiss mouse peritonitis model assessed as decrease in total number of cells in pertonial cavity at 100 mg/kg, ip administered 30 mins prior to carrageenan challenge. On the set-up: scale not given: the % may be the effect or the level left. It counts as functional.
Data set [15] concerns Mus musculus. Description: Antiinflammatory activity in bradykinin-induced peritonitis ip dosed Swiss mouse model assessed as decrease in total number of cells in pertonial cavity administered for 4 hrs prior to bradykinin challenge. The class given is functional.
Data set [16] has as its system Mus musculus. Description: Antiinflammatory activity in bradykinin-induced peritonitis Swiss mouse model assessed as decrease in total number of cells in pertonial cavity at 10 mg/kg, ip administered for 30 mins prior to bradykinin challenge. It counts as functional.
Data set [17] relates to Mus musculus. The data set can be described thus: Antiinflammatory activity in bradykinin-induced Swiss mouse peritonitis model assessed as decrease in total number of cells in pertonial cavity at 1 mg/kg, ip administered for 30 mins prior to bradykinin challenge. The class given is functional, organism-based.
Data set [18] concerns Mus musculus. Description: Antiinflammatory activity against carrageenan-induced paw edema in Swiss mouse at 100 mg/kg, ip measured at 15 to 90 mins administered 30 mins prior to carrageenan-challenge by plethysmometric analysis. The class given is functional.
Data set [19] relates to Mus musculus. The data set can be described thus: In vivo inhibition of myeloperoxidase activity in bradykinin-induced Swiss mouse peritonitis model at 1 to 100 mg/kg, ip administered prior to bradykinin challenge for 4hrs. The class given is functional, organism-based.
Data set [20] has as its system Mus musculus. The data set can be described thus: Antiinflammatory activity in substance p-induced Swiss mouse peritonitis model assessed as decrease in total number of cells in pertonial cavity at 1 to 10 mg/kg, ip administered for 30 mins prior to substance-P challenge. It counts as functional, organism-based.
The subject of data set [21] is Mus musculus. The data set can be described thus: Antiinflammatory activity against bradykinin-induced paw edema in Swiss mouse at 3 mg/kg, ip measured at 15 to 90 mins administered 30 mins prior to bradikynin-challenge by plethysmometric analysis. It counts as functional.
In data set [22] the test system is Mus musculus. Description: In vivo inhibition of myeloperoxidase activity in carrageenan-induced Swiss mouse peritonitis model at 1 to 100 mg/kg, ip administered prior to carrageenan challenge for 4hrs. The class given is functional, organism-based.
Data set [23] deals with Mus musculus. The data set can be described thus: Antiinflammatory activity against carrageenan-induced paw edema in Swiss mouse at 3 mg/kg, ip measured at 15 to 90 mins administered 30 mins prior to carrageenan-challenge by plethysmometric analysis. It counts as functional.
For data set [24], the system named is Mus musculus. The data set can be described thus: Antiinflammatory activity in bradykinin-induced peritonitis Swiss mouse model assessed as decrease in total number of cells in pertonial cavity at 3 mg/kg, ip administered for 30 mins prior to bradykinin challenge. It counts as functional.
Data set [25] has as its system Mus musculus. The data set can be described thus: Antiinflammatory activity against bradykinin-induced paw edema in Swiss mouse at 100 mg/kg, ip measured at 15 to 90 mins administered 30 mins prior to bradikynin-challenge by plethysmometric analysis. The class given is functional.
For data set [26], the system named is Mus musculus. Description: Antiinflammatory activity against substance-P-induced paw edema in Swiss mouse at 3 mg/kg, ip measured at 15 to 90 mins administered 30 mins prior to substance p-challenge by plethysmometric analysis. The class given is functional.
Data set [27] has as its system Mus musculus. The data set can be described thus: Antiinflammatory activity in carrageenan-induced Swiss mouse peritonitis model assessed as decrease in total number of cells in pertonial cavity at 3 mg/kg, ip administered for 4 hrs prior to carrageenan challenge. The class given is functional. On the set-up: scale not given: the % may be the effect or the level left.

For data set [28], the system named is Mus musculus. The data set can be described thus: Antiinflammatory activity in substance p-induced Swiss mouse peritonitis model assessed as decrease in total number of cells in pertonial cavity at 3 mg/kg, ip administered for 30 mins prior to substance-P challenge. The class given is functional.

Activity calls are given as the source filed them. The calls are words filed in the database; no cut-off is given here.

Usually IC50 stands for the midpoint of a concentration-inhibition curve. By inhibition in vivo is commonly meant the percentage by which the read-out fell short of the control. Usually ED50 stands for the dose at which the effect has come halfway, by size or by number of responders.

With `COc1cc(/C=C/C(=O)/C=C/c2ccc(O)c(OC)c2)ccc1[O-].[Na+]`, the half-inhibitory concentration (IC50) with RAW264.7 [1] was 7.7 µM. The values for the Activity entry with RAW264.7 [2] and with Mus musculus [14] were “Non-toxic” and 38.4%, respectively. Besides, the result with A-375 [3], with Mus musculus [8], with Mus musculus [17] and in the data set with Mus musculus [20] was inactive. Also, the inhibition in vivo at 10 mg/kg with Mus musculus [4] was found to be 15.4%; in the data set on Mus musculus [6] it was 17.2%; with Mus musculus [7] it was 30.8%; in the data set with Mus musculus [16], 65.4%. Further, the inhibition result in the data set on RAW264.7 [5], with RAW264.7 [9], in the data set with Mus musculus [19] and in the data set with Mus musculus [22] was “Active” each time. In addition, the outcome with A-375 [10] was Active. In addition, the inhibition in vivo at 100 mg/kg in the data set on Mus musculus [11] is 78.8%; in the data set on Mus musculus [12], 31.5%; with Mus musculus [13], 40%; with Mus musculus [18], 18.9%. Besides, the median effective dose (ED50) in the data set with Mus musculus [15] worked out at 7.6 mg/kg. For the same compound, in the data set on Mus musculus [21], the inhibition in vivo at 3 mg/kg was 39.2%.
For `CC(=O)OCC(=O)[C@@]12N=C(C)O[C@@H]1C[C@H]1[C@@H]3CCC4=CC(=O)C=C[C@]4(C)[C@H]3[C@@H](O)C[C@@]12C` [DEFLAZACORT], the inhibition in vivo at 3 mg/kg with Mus musculus [23] was 29.2%; in the data set with Mus musculus [24], 46.2%; in the data set with Mus musculus [26], 32.8%; in the data set with Mus musculus [28], 53.3%. For the same compound, testing at 100 mg/kg in the data set with Mus musculus [25] gave an inhibition in vivo of 30.1%. Also, in the data set with Mus musculus [27], the Activity stood at 57.1%. Further, the inhibition entry in the data set on Mus musculus [19] and in the data set with Mus musculus [22] was “Active” in each case.
